Columns and labels:
Test in all cases: 7-day co-treatment combination study, CellTiter-Glo, Loewe Volume
[1] = system: NCI-H929; type: cell-based; settings: NCI-H929 multiple myeloma cells, 7-day co-treatment with Cpd. No. 15
Method: (§1) Multiple myeloma (MM) and mantle cell lymphoma (MCL) Cell line cultures in log-linear growth rate were treated with combinations of Cpd. No. 15 and combination partners according to a co-treatment model. […] No. 15 and the combination partner. […] Each combination was tested in quadruplicate wells. The final concentration of DMSO (vehicle) in the assay was 0.1% v/v. Fifty microliters of cell line suspension were directly dispensed to the assay-ready plates with an automated multichannel dispenser on to 384-well assay-ready plates. Assay plates were incubated for seven days in a humidified atmosphere of 5% CO2 at 37° C. Quantification of the effect of single agents or combinations on cell viability was performed through measurement of cellular adenosine triphosphate (ATP) using a CellTiter-Glo® (Promega, MadisonWIs.) Luminescent Cell Viability Assay. Luminescence was detected using a SpectraMax M5 microplate reader (Molecular Devices, Sunnyvale, CA). Concentration response plots were generated in GraphPad Prism version 7.0 for Windows, GraphPad Software, (La Jolla, CA) and curves fitted to a four-parameter logistic model with variable slope. Percent of inhibition was calculated at each treatment concentration.
(§2) The results of these combinations are summarized in Tables A and B (multiple myeloma cell lines), and Tables C and D (mantle cell lymphoma cell lines).

[2] = system: KMS-28-BM; type: cell-based; settings: KMS-28-BM multiple myeloma cells, 7-day co-treatment with Cpd. No. 15
Method: as §1, §2

[3] = system: KMS-11; settings: for Combination effect (Loewe Volume class) of Cpd. No. 15 with combination partner: KMS-11 multiple myeloma cells, 7-day co-treatment with Cpd. No. 15
[4] = system: MM1.S; type: cell-based; settings: MM1.S multiple myeloma cells, 7-day co-treatment with Cpd. No. 15
Method: as §1, §2

[5] = system: L363; type: cell-based; settings: L363 multiple myeloma cells, 7-day co-treatment with Cpd. No. 15
Method: as §1, §2

[6] = system: KMS34; type: cell-based; settings: KMS34 multiple myeloma cells, 7-day co-treatment with Cpd. No. 15
Method: as §1, §2

[7] = system: RPMI-8226; type: cell-based; settings: RPMI-8226 multiple myeloma cells, 7-day co-treatment with Cpd. No. 15
Method: as §1, §2

Row | Compound | Combination effect (Loewe Volume class) of Cpd. No. 15 with combination partner [1] | Combination effect (Loewe Volume class) of Cpd. No. 15 with combination partner [2] | Combination effect (Loewe Volume class) of Cpd. No. 15 with combination partner [3] | Combination effect (Loewe Volume class) of Cpd. No. 15 with combination partner [4] | Combination effect (Loewe Volume class) of Cpd. No. 15 with combination partner [5] | Combination effect (Loewe Volume class) of Cpd. No. 15 with combination partner [6] | Combination effect (Loewe Volume class) of Cpd. No. 15 with combination partner [7] | anti-proliferative activity of Cpd. No. 15 combined with pomalidomide ([3]; KMS-11 cells, 7-day co-treatment study, combined with pomalidomide (FIG. 3))
1 | CCN(c1cc(C#CCN2CCOCC2)cc(C(=O)NCc2c(C)cc(C)[nH]c2=O)c1C)[C@H]1CC[C@H](N(C)CCOC)CC1 [EPZ-11989] | No Effect | Additivity (between 1 and −1: additivity) | Additivity (between 1 and −1: additivity) |  |  |  |  | 
2 | Nc1cccc2c1C(=O)N(C1CCC(=O)NC1=O)C2=O (centres unmarked) [Pomalidomide, pomalidomide] | Synergy (VLoewe>1: synergy) | Additivity (between 1 and −1: additivity) | Synergy (VLoewe>1: synergy) | Additivity (between 1 and −1: additivity) | Additivity (between 1 and −1: additivity) | Synergy (VLoewe>1: synergy) | Synergy (VLoewe>1: synergy) | 
3 | O=C(/C=C\n1cnc(-c2cc(C(F)(F)F)cc(C(F)(F)F)c2)n1)NNc1cnccn1 [Selinexor, selinexor] | Synergy (VLoewe>1: synergy) | Additivity (between 1 and −1: additivity) | Additivity (between 1 and −1: additivity) | Additivity (between 1 and −1: additivity) | Additivity (between 1 and −1: additivity) | Synergy (VLoewe>1: synergy) | Additivity (between 1 and −1: additivity) | 
4 | Cc1nc2cccc(N)c2c(=O)n1C1CCC(=O)NC1=O (centres unmarked) [CC-122] | Synergy (VLoewe>1: synergy) | Additivity (between 1 and −1: additivity) | Synergy (VLoewe>1: synergy) | Additivity (between 1 and −1: additivity) | Additivity (between 1 and −1: additivity) | Synergy (VLoewe>1: synergy) | Additivity (between 1 and −1: additivity) | 
5 | CC(=O)N1CCN([C@H]2CCC[C@@H](NC(=O)c3cc4c(F)ccc(C)c4[nH]3)C2)CC1 [Cpd. No. 15, N-((1R,3S)-3-(4-acetylpiperazin-1-yl)cyclohexyl)-4-fluoro-7-methyl-1H-indole-2-carboxamide] |  |  |  |  |  |  |  | synergistic
6 | C[C@@H]1C[C@H]2[C@@H]3CCC4=CC(=O)C=C[C@]4(C)[C@@]3(F)[C@@H](O)C[C@]2(C)[C@@]1(O)C(=O)CO [Dexamethasone, dexamethasone] | Synergy (VLoewe>1: synergy) | Additivity (between 1 and −1: additivity) | Synergy (VLoewe>1: synergy) | Additivity (between 1 and −1: additivity) | Synergy (VLoewe>1: synergy) | Synergy (VLoewe>1: synergy) | Synergy (VLoewe>1: synergy) | 

Reference: patent US12691111B2, “SETD2 inhibitors and related methods and uses, including combination therapies” (EPIZYME, INC., priority 2020, dated 2026)
